According to article PMC9945734 (BMC Medicine, 2023):
Like-named read-outs stand apart in the source and are kept apart here.

Test system: PC-3-KQ cells
Experiment: 3D spheroid invasion assay and screening of FDA-approved drugs
Type: cell-based, human
Settings: compared to vehicle control; for activity at 0.01 µM / activity at 0.1 µM / activity at 1 µM / activity at 10 µM: Homo sapiens, 72 h
Protocol: The invasion assay was performed as previously described. […] The plates were then centrifuged at 320 g for 4 min to cluster cells in the bottom of wells and incubated for 3 days. On the fourth day, 40 μL medium was removed from each well, 40 μL of the matrigel-medium mixture was added to each well, and cells were cultured for another 3 days. […] At the end of the incubation, images were taken using a phase contrast microscope (Eclipse Ti2, Nikon, Tokyo, Japan) with 10× object lenses, and the total area of cells and the core sphere area of cells (Fig. 1a) were measured using the Image J software. The invading area was calculated using the following formula: invasion area = total area of cells – core sphere area.
For drug screening, drugs were added to the matrigel-medium mixture when replacing the culture medium on day 4. For the initial round of screening, a final concentration of 10 μM was used for all drugs. Multiple drug concentrations were used for the second round of screening, including 0, 0.001, 0.01, 0.1, 1, and 10 μM. Duplicate wells were repeated for each concentration.

[1] = 0.01 μM (first column so headed), secondary screening of 87 hit compounds (Table S1)
[2] = 0.01 μM (second column so headed), secondary screening of 87 hit compounds (Table S1)
[3] = 0.1 μM, secondary screening of 87 hit compounds (Table S1)
[4] = 1 μM, secondary screening of 87 hit compounds (Table S1)
[5] = 10 μM, secondary screening of 87 hit compounds (Table S1)
[6] = 0.01 μM (first column so headed), third screening of 25 hit compounds (Table S2)
[7] = 0.01 μM (second column so headed), third screening of 25 hit compounds (Table S2)
[8] = 0.1 μM, third screening of 25 hit compounds (Table S2)
[9] = 1 μM, third screening of 25 hit compounds (Table S2)
[10] = 10 μM, third screening of 25 hit compounds (Table S2)
[11] = 0.01 μM (first column so headed), secondary screening of 87 hit compounds (Table S1), read-out: Invasion rates (%) of each drug’s multiple concentrations
[12] = 0.01 μM (second column so headed), secondary screening of 87 hit compounds (Table S1), read-out: Invasion rates (%) of each drug’s multiple concentrations
[13] = 0.1 μM, secondary screening of 87 hit compounds (Table S1), read-out: Invasion rates (%) of each drug’s multiple concentrations
[14] = 1 μM, secondary screening of 87 hit compounds (Table S1), read-out: Invasion rates (%) of each drug’s multiple concentrations
[15] = 10 μM, secondary screening of 87 hit compounds (Table S1), read-out: Invasion rates (%) of each drug’s multiple concentrations
[16] = 0.01 μM (first column so headed), third screening of 25 hit compounds (Table S2), read-out: Invasion rates (%) of each drug’s multiple concentrations
[17] = 0.01 μM (second column so headed), third screening of 25 hit compounds (Table S2), read-out: Invasion rates (%) of each drug’s multiple concentrations
[18] = 0.1 μM, third screening of 25 hit compounds (Table S2), read-out: Invasion rates (%) of each drug’s multiple concentrations
[19] = 1 μM, third screening of 25 hit compounds (Table S2), read-out: Invasion rates (%) of each drug’s multiple concentrations
[20] = 10 μM, third screening of 25 hit compounds (Table S2), read-out: Invasion rates (%) of each drug’s multiple concentrations

Row | Compound | Invasion rates (%) of each drug’s multiple concentrations (μM) [1] [%] | Invasion rates (%) of each drug’s multiple concentrations (μM) [2] [%] | Invasion rates (%) of each drug’s multiple concentrations (μM) [3] [%] | Invasion rates (%) of each drug’s multiple concentrations (μM) [4] [%] | Invasion rates (%) of each drug’s multiple concentrations (μM) [5] [%] | activity at 0.01 µM [11] [%] | activity at 0.01 µM [12] [%] | activity at 0.1 µM [13] [%] | activity at 1 µM [14] [%] | activity at 10 µM [15] [%] | other results
1 | Cl.Cl.O=C1c2c(O)ccc(O)c2C(=O)c2c(NCCNCCO)ccc(NCCNCCO)c21 [Mitoxantrone (dihydrochloride)] | 88.48 | 95.77 | 89.03 | 87.29 | 31.96 | – | – | – | – | – | –
2 | Cc1ccc(C(=O)Nc2ccc(CN3CCN(C)CC3)c(C(F)(F)F)c2)cc1C#Cc1cnc2cccnn12 [Ponatinib] | – | – | – | – | – | – | – | – | – | – | activity at 0.01 µM (read-out: Invasion rates (%) of each drug’s multiple concentrations (μM), 0.01 μM (first column so headed), secondary screening of 87 hit compounds (Table S1)): 94.4%; activity at 0.01 µM (read-out: Invasion rates (%) of each drug’s multiple concentrations (μM), 0.01 μM (second column so headed), secondary screening of 87 hit compounds (Table S1)): 94.5%; activity at 0.1 µM (read-out: Invasion rates (%) of each drug’s multiple concentrations (μM), 0.1 μM, secondary screening of 87 hit compounds (Table S1)): 94.8%; activity at 1 µM (read-out: Invasion rates (%) of each drug’s multiple concentrations (μM), 1 μM, secondary screening of 87 hit compounds (Table S1)): 91%; activity at 10 µM (read-out: Invasion rates (%) of each drug’s multiple concentrations (μM), 10 μM, secondary screening of 87 hit compounds (Table S1)): 17.7%
3 | CNC[C@H](O)[C@@H](O)[C@H](O)[C@H](O)CO.Nc1nc(-n2cc(C(=O)O)c(=O)c3cc(F)c(N4CC(O)C4)c(Cl)c32)c(F)cc1F [Delafloxacin (meglumine)] | 85.63 | 84.75 | 73.78 | 2.08 | 1.54 | – | – | – | – | – | Invasion rates (%) of each drug’s multiple concentrations (μM) [6]: 93.02%; Invasion rates (%) of each drug’s multiple concentrations (μM) [7]: 86.37%; Invasion rates (%) of each drug’s multiple concentrations (μM) [8]: 82.73%; Invasion rates (%) of each drug’s multiple concentrations (μM) [9]: 1.96%; Invasion rates (%) of each drug’s multiple concentrations (μM) [10]: 0.81%
4 | CN(C)C(=O)c1cc2cnc(Nc3ccc(N4CCNCC4)cn3)nc2n1C1CCCC1 [Ribociclib] | – | – | – | – | – | 99.5 | 101 | 97.2 | 96 | 30.9 | –
5 | Acetylspiramycin | 96.71 | 96.46 | 96.77 | 87.68 | 2.37 | – | – | – | – | – | –
6 | CN(C)[C@@H]1C(=O)C(C(N)=O)=C(O)[C@@]2(O)C(=O)C3=C(O)c4c(O)ccc(Cl)c4[C@@H](O)[C@H]3C[C@@H]12.Cl [Demeclocycline (hydrochloride)] | 92.92 | 97.24 | 81.08 | 41.75 | 4.21 | – | – | – | – | – | Invasion rates (%) of each drug’s multiple concentrations (μM) [6]: 93.85%; Invasion rates (%) of each drug’s multiple concentrations (μM) [7]: 95.74%; Invasion rates (%) of each drug’s multiple concentrations (μM) [8]: 89.49%; Invasion rates (%) of each drug’s multiple concentrations (μM) [9]: 2.65%; Invasion rates (%) of each drug’s multiple concentrations (μM) [10]: 0.30%
7 | COc1cccc2c1C(=O)c1c(O)c3c(c(O)c1C2=O)C[C@@](O)(C(=O)CO)C[C@@H]3O[C@H]1C[C@H](N)[C@H](O[C@@H]2CCCCO2)[C@H](C)O1.Cl [Pirarubicin (Hydrochloride)] | 87.28 | 91.46 | 86.00 | 81.69 | 10.50 | – | – | – | – | – | –
8 | Cc1cc(Nc2ncc(Cl)c(Nc3ccccc3S(=O)(=O)C(C)C)n2)c(OC(C)C)cc1C1CCNCC1.Cl.Cl [Ceritinib dihydrochloride] | 88.46 | 86.07 | 92.06 | 86.82 | 39.86 | – | – | – | – | – | –
9 | Cn1cnc([N+](=O)[O-])c1Sc1ncnc2nc[nH]c12 [Azathioprine] | – | – | – | – | – | 85.2 | 91.6 | 80 | 68.3 | 33.5 | –
10 | CCCCCCCCN=c1ccn(CCCCCCCCCCn2ccc(=NCCCCCCCC)cc2)cc1.Cl.Cl [Octenidine (dihydrochloride)] | 97.90 | 100.69 | 97.53 | 95.54 | 46.51 | – | – | – | – | – | –
11 | CO[C@@H]1[C@H](N(C)C(=O)c2ccccc2)C[C@H]2O[C@]1(C)n1c3ccccc3c3c4c(c5c6ccccc6n2c5c31)C(=O)NC4 [Midostaurin] | – | – | – | – | – | 97.5 | 98.7 | 96 | 95.8 | 34.3 | –
12 | CN(C)[C@@H]1C(O)=C(C(N)=O)C(=O)[C@@]2(O)C(O)=C3C(=O)c4c(O)cccc4[C@@](C)(O)[C@H]3[C@H](O)[C@@H]12 [Oxytetracycline] | – | – | – | – | – | 84.1 | 91 | 82.2 | 71.3 | 8.26 | –
13 | COc1cccc2c1C(=O)c1c(O)c3c(c(O)c1C2=O)C[C@@](O)(C(=O)CO)C[C@@H]3O[C@H]1C[C@H](N)[C@@H](O)[C@H](C)O1.Cl [Epirubicin (hydrochloride)] | 94.42 | 95.60 | 93.22 | 88.57 | 4.65 | – | – | – | – | – | –
14 | COc1cc2ncnc(Nc3ccc(F)c(Cl)c3)c2cc1NC(=O)/C=C/CN1CCCCC1 [Dacomitinib] | – | – | – | – | – | 78.1 | 77.8 | 73.1 | 44.7 | 5.75 | activity at 0.01 µM [16]: 98.9%; activity at 0.01 µM [17]: 102%; activity at 0.1 µM [18]: 98.6%; activity at 1 µM [19]: 90.7%; activity at 10 µM [20]: 53.9%
15 | CC(C)C[C@H](NC(=O)[C@H](Cc1ccccc1)NC(=O)c1cnccn1)B(O)O [Bortezomib] | – | – | – | – | – | 29.5 | 75.3 | 5.79 | 4.37 | 0.98 | activity at 0.01 µM [16]: 84.3%; activity at 0.01 µM [17]: 92.8%; activity at 0.1 µM [18]: 66.1%; activity at 1 µM [19]: 35.3%; activity at 10 µM [20]: 9.72%
16 | CCN(CC)CCOc1ccc2c(c1)C(=O)c1cc(OCCN(CC)CC)ccc1-2.Cl.Cl [Tilorone (dihydrochloride)] | 95.38 | 99.11 | 94.30 | 93.22 | 9.81 | – | – | – | – | – | –
17 | CN(C)c1ccc(O)c2c1C[C@H]1C[C@H]3[C@H](N(C)C)C(=O)C(C(N)=O)=C(O)[C@@]3(O)C(=O)C1=C2O.Cl [Minocycline (hydrochloride)] | 87.07 | 98.27 | 80.93 | 62.17 | 5.40 | – | – | – | – | – | –
